Legend:
[1] = tested on: carbapenem-resistant P. aeruginosa clinical isolate CFS-1292; assay: MIC by modified CLSI broth microdilution against P. aeruginosa CFS-1292 (CAA, CAA + human serum); assay type: cell-based, Pseudomonas aeruginosa
Enterobacter cloacae = assay: microbe, parasite or virus in culture; assay type: cell-based; conditions: Enterobacter cloacae ATCC 13047; CAA supplemented with human serum
Summary of the method: (§1)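 Strains are exposed to peptide dilutions in CAA containing human serum, and the minimal inhibitory concentration is recorded.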

Escherichia coli = assay: microbe, parasite or virus in culture; assay type: cell-based; conditions: Escherichia coli ATCC 25922; CAA supplemented with human serum
Summary of the method: as §1

Klebsiella pneumoniae = assay type: cell-based; conditions: Klebsiella pneumoniae HM-44; CAA supplemented with human serum
Description: Determination of Minimal Inhibitory Concentrations (MIC).
Additional MIC testing was performed for several peptides against the ESKAPE pathogens Escherichia coli, Enterobacter cloacae, Klebsiella pneumoniae, and Acinetobacter baumannii, in CAA supplemented with human serum (Table D).

Acinetobacter baumannii = assay: microbe, parasite or virus in culture; assay type: cell-based; conditions: Acinetobacter baumannii ATCC BAA 747; CAA supplemented with human serum
M. smegmatis = assay: 45 hr MIC against M. smegmatis (NTM), Mueller Hinton broth; assay type: cell-based, Mycobacterium smegmatis; conditions: M. smegmatis MC^2 155, Run #1
LPS = assay: Endotoxin neutralization, limulus amoebocyte lysate (LAL) enzyme assay, LPS binding; assay type: biochemical; conditions: LPS 0.8 EU/mL
Description: CHEM. […] The standard reference samples contained only LPS dissolved in pyrogen-free water. Solutions were mixed well and incubated at 24° C. for 1 hour, and the manufacturers' test procedure for quantitative detection of endotoxins was followed.

[2] = tested on: A. baumannii strain BAA-747 persister cells; assay: Activity against persister cells, A. baumannii; assay type: cell-based, Acinetobacter baumannii; conditions: A. baumannii BAA-747 persister cells; for MIC Log10 (CFU/mL) Run #1 / MIC Log10 (CFU/mL) Run #2 / MIC Log10 (CFU/mL) Run #3: 1 hour at 37° C., limit of detection 1.6-log10 CFU/mL; for MIC Log10 (CFU/mL) Average: average of 3 runs; for Delta Log: log10 CFU/mL reduction as compared to buffer
[3] = tested on: P. aeruginosa strain PA20 persister cells; assay: Activity against persister cells, P. aeruginosa; assay type: cell-based, Pseudomonas aeruginosa; conditions: P. aeruginosa PA20 persister cells; for Delta Log: log10 CFU/mL reduction as compared to buffer
[4] = tested on: P. aeruginosa strain PAO1; assay: MIC against PAO1 in Mueller-Hinton broth with 50% human plasma or human serum; assay type: cell-based, Pseudomonas aeruginosa; conditions: PAO1
[5] = Run #1, limit of detection 2-log10 CFU/mL
[6] = Run #2, limit of detection 2-log10 CFU/mL
[7] = Run #3, limit of detection 2-log10 CFU/mL

Substance	MIC Log10 (CFU/mL) Run #1 [2]	MIC Log10 (CFU/mL) Run #2 [2]	MIC Log10 (CFU/mL) Run #3 [2]	MIC Log10 (CFU/mL) Average [2]	Delta Log [2]	Viable persister count after treatment (log10 CFU/mL) [3, 5]	Viable persister count after treatment (log10 CFU/mL) [3, 6]	Viable persister count after treatment (log10 CFU/mL) [3, 7]	Viable persister count after treatment (log10 CFU/mL) ([3]; average of 3 runs)	Delta Log [3]	further results
MAEQYELSQEQSEQLFSETALQMHEQNELQEIMQGGIEF [Chp5]	4.1 Log10 (CFU/mL)	5.1 Log10 (CFU/mL)	4.5 Log10 (CFU/mL)	4.6 Log10 (CFU/mL)	0.3	4.4 Log10 (CFU/mL)	4.3 Log10 (CFU/mL)	3.1 Log10 (CFU/mL)	3.9 Log10 (CFU/mL)	0.5	MIC (μg/mL) against CFS-1292 in 100% CAA (1st run/2nd run) ([1]; 100% CAA, 1st run or single value): >32 µg/mL; MIC (μg/mL) against CFS-1292 in CAA + […] human serum ([1]; CAA + […] human serum): >32 µg/mL; MIC (Enterobacter cloacae): >32 µg/mL; MIC (Escherichia coli): 4 µg/mL; MIC (Klebsiella pneumoniae): 8 µg/mL; MIC (Acinetobacter baumannii): >32 µg/mL; 45 hr MIC (M. smegmatis): >64 µg/mL; LPS binding (LPS; […]-64 μg/mL, 24° C., 1 hour): does not bind LPS; % LPS Bound (LPS; peptide concentration 0.5 μg/mL): 0.1%; % LPS Bound (LPS; peptide concentration 1 μg/mL): 0.1%; % LPS Bound (LPS; peptide concentration 2 μg/mL): 0.1%; % LPS Bound (LPS; peptide concentration 4 μg/mL): 0.1%; % LPS Bound (LPS; peptide concentration 8 μg/mL): 5.4%; % LPS Bound (LPS; peptide concentration 16 μg/mL): 0.1%; % LPS Bound (LPS; peptide concentration 32 μg/mL): 0.1%; % LPS Bound (LPS; peptide concentration 64 μg/mL): 0.9%
PGLa											Minimal inhibitory concentration, Human Plasma ([4]; Mueller-Hinton broth with 50% human plasma): >64 µg/mL; Minimal inhibitory concentration, Human Serum ([4]; Mueller-Hinton broth with human serum): >64 µg/mL
Lysozyme	3.5 Log10 (CFU/mL)	5.2 Log10 (CFU/mL)	5.0 Log10 (CFU/mL)	4.6 Log10 (CFU/mL)	0.3	4.7 Log10 (CFU/mL)	4.4 Log10 (CFU/mL)	4.2 Log10 (CFU/mL)	4.4 Log10 (CFU/mL)	0.0	

— patent publication US20220401514A1, “ANTIMICROBIAL, BACTERIOPHAGE-DERIVED POLYPEPTIDES AND THEIR USE AGAINST GRAM-NEGATIVE AND ACID-FAST BACTERIA” (CONTRAFECT CORPORATION, priority 2019, published 2022)
